Assay: xn = mol fraction of the nth substance listed
Conditions: 101 kPa, Liquid; for viscosity: Falling or rolling sphere viscometry; for mass density: Vibrating tube method

O [water] + CC[n+]1ccccc1.[Br-]
x2 = 0
Conditions	mass density [kg/m3]	viscosity [mPa·s]
298.15 K	–	0.89
303.15 K	–	0.797
308.15 K	–	0.719
313.15 K	–	0.653
318.15 K	990.1	0.596
323.15 K	987.9	0.547
328.15 K	985.6	0.504
333.15 K	983.2	0.466
338.15 K	980.3	0.433
343.15 K	978.1	0.404
348.15 K	974.8	0.378

CC[n+]1ccccc1.[Br-] [1-ethylpyridinium bromide] + O
Conditions	mass density [kg/m3]	viscosity [mPa·s]
298.15 K, x1 = 0.027	1069.4	1.203
298.15 K, x1 = 0.049	1113.8	1.483
298.15 K, x1 = 0.063	1139.5	1.75
298.15 K, x1 = 0.086	1174.3	2.18
298.15 K, x1 = 0.101	1194.1	2.507
298.15 K, x1 = 0.147	1243.9	3.769
298.15 K, x1 = 0.184	1274.6	5.028
298.15 K, x1 = 0.213	1294.5	6.298
298.15 K, x1 = 0.25	1315.3	8.734
298.15 K, x1 = 0.299	1337	10.5
298.15 K, x1 = 0.341	1352.3	13.33
298.15 K, x1 = 0.401	1370.9	19.65
298.15 K, x1 = 0.451	1381.1	25.82
303.15 K, x1 = 0.027	1067.4	1.071
303.15 K, x1 = 0.049	1111.4	1.339
303.15 K, x1 = 0.063	1137	1.554
303.15 K, x1 = 0.086	1171.6	1.913
303.15 K, x1 = 0.101	1191.2	2.215
303.15 K, x1 = 0.147	1240.8	3.293
303.15 K, x1 = 0.184	1271.3	4.402
303.15 K, x1 = 0.213	1291.1	5.427
303.15 K, x1 = 0.25	1311.9	7.646
303.15 K, x1 = 0.299	1333.6	8.868
303.15 K, x1 = 0.341	1348.8	11.27
303.15 K, x1 = 0.401	1367.4	16.67
303.15 K, x1 = 0.451	1378	21.6
308.15 K, x1 = 0.027	1065.2	0.969
308.15 K, x1 = 0.049	1109	1.207
308.15 K, x1 = 0.063	1134.3	1.393
308.15 K, x1 = 0.086	1168.7	1.728
308.15 K, x1 = 0.101	1188.2	1.966
308.15 K, x1 = 0.147	1237.6	2.911
308.15 K, x1 = 0.184	1268	3.821
308.15 K, x1 = 0.213	1287.7	4.737
308.15 K, x1 = 0.25	1308.5	6.664
308.15 K, x1 = 0.299	1330.2	7.711
308.15 K, x1 = 0.341	1345.4	9.653
308.15 K, x1 = 0.401	1364	14.3
308.15 K, x1 = 0.451	1374.6	18.22
313.15 K, x1 = 0.027	1062.8	0.882
313.15 K, x1 = 0.049	1106.4	1.093
313.15 K, x1 = 0.063	1131.6	1.26
313.15 K, x1 = 0.086	1165.8	1.565
313.15 K, x1 = 0.101	1185.2	1.768
313.15 K, x1 = 0.147	1234.3	2.591
313.15 K, x1 = 0.184	1264.6	3.38
313.15 K, x1 = 0.213	1284.3	4.172
313.15 K, x1 = 0.25	1305	5.814
313.15 K, x1 = 0.299	1326.7	6.713
313.15 K, x1 = 0.341	1341.9	8.366
313.15 K, x1 = 0.401	1360.5	12.27
313.15 K, x1 = 0.451	1371.1	15.47
318.15 K, x1 = 0.027	1061	0.808
318.15 K, x1 = 0.049	1103.7	1.004
318.15 K, x1 = 0.063	1128.8	1.146
318.15 K, x1 = 0.086	1162.8	1.414
318.15 K, x1 = 0.101	1182.1	1.599
318.15 K, x1 = 0.147	1230.9	2.321
318.15 K, x1 = 0.184	1261.3	3.012
318.15 K, x1 = 0.213	1280.9	3.702
318.15 K, x1 = 0.25	1301.6	5.096
318.15 K, x1 = 0.299	1323.3	5.898
318.15 K, x1 = 0.341	1338.5	7.312
318.15 K, x1 = 0.401	1357.1	10.62
318.15 K, x1 = 0.451	1367.7	13.29
323.15 K, x1 = 0.027	1058.9	0.744
323.15 K, x1 = 0.049	1100.6	0.92
323.15 K, x1 = 0.063	1125.8	1.047
323.15 K, x1 = 0.086	1159.7	1.287
323.15 K, x1 = 0.101	1179	1.456
323.15 K, x1 = 0.147	1227.7	2.096
323.15 K, x1 = 0.184	1257.9	2.702
323.15 K, x1 = 0.213	1277.5	3.309
323.15 K, x1 = 0.25	1298.1	4.482
323.15 K, x1 = 0.299	1319.8	5.226
323.15 K, x1 = 0.341	1335	6.446
323.15 K, x1 = 0.401	1353.7	9.272
323.15 K, x1 = 0.451	1364.3	11.53
328.15 K, x1 = 0.027	1056.7	0.695
328.15 K, x1 = 0.049	1097.6	0.846
328.15 K, x1 = 0.063	1122.7	0.961
328.15 K, x1 = 0.086	1156.6	1.18
328.15 K, x1 = 0.101	1175.8	1.332
328.15 K, x1 = 0.147	1224.4	1.9
328.15 K, x1 = 0.184	1254.4	2.439
328.15 K, x1 = 0.213	1274	2.977
328.15 K, x1 = 0.25	1294.7	3.973
328.15 K, x1 = 0.299	1316.3	4.663
328.15 K, x1 = 0.341	1331.6	5.733
328.15 K, x1 = 0.401	1350.2	8.204
328.15 K, x1 = 0.451	1360.8	10.13
333.15 K, x1 = 0.027	1054.6	0.644
333.15 K, x1 = 0.049	1095.3	0.787
333.15 K, x1 = 0.063	1119.5	0.889
333.15 K, x1 = 0.086	1153.8	1.088
333.15 K, x1 = 0.101	1172.5	1.222
333.15 K, x1 = 0.147	1221	1.737
333.15 K, x1 = 0.184	1251	2.216
333.15 K, x1 = 0.213	1270.6	2.698
333.15 K, x1 = 0.25	1291.2	3.554
333.15 K, x1 = 0.299	1312.9	4.186
333.15 K, x1 = 0.341	1328.1	5.129
333.15 K, x1 = 0.401	1346.8	7.29
333.15 K, x1 = 0.451	1357.4	8.99
338.15 K, x1 = 0.027	1052.4	0.612
338.15 K, x1 = 0.049	1092.6	0.734
338.15 K, x1 = 0.063	1116.8	0.825
338.15 K, x1 = 0.086	1150.9	1.006
338.15 K, x1 = 0.101	1169.1	1.118
338.15 K, x1 = 0.147	1217.5	1.582
338.15 K, x1 = 0.184	1247.5	2.019
338.15 K, x1 = 0.213	1267.1	2.42
338.15 K, x1 = 0.25	1287.7	3.118
338.15 K, x1 = 0.299	1309.4	3.788
338.15 K, x1 = 0.341	1324.7	4.616
338.15 K, x1 = 0.401	1343.4	6.5
338.15 K, x1 = 0.451	1354	8.008
343.15 K, x1 = 0.027	1050.3	0.58
343.15 K, x1 = 0.049	1089.9	0.689
343.15 K, x1 = 0.063	1113.8	0.771
343.15 K, x1 = 0.086	1147.9	0.941
343.15 K, x1 = 0.101	1166.3	1.045
343.15 K, x1 = 0.147	1214	1.465
343.15 K, x1 = 0.184	1244	1.855
343.15 K, x1 = 0.213	1263.5	2.245
343.15 K, x1 = 0.25	1284.2	2.805
343.15 K, x1 = 0.299	1305.9	3.416
343.15 K, x1 = 0.341	1321.2	4.159
343.15 K, x1 = 0.401	1339.9	6.011
343.15 K, x1 = 0.451	1350.6	7.3
348.15 K, x1 = 0.027	1048.2	0.549
348.15 K, x1 = 0.049	1087.2	0.649
348.15 K, x1 = 0.063	1110.9	0.724
348.15 K, x1 = 0.086	1144.9	0.886
348.15 K, x1 = 0.101	1163.2	0.982
348.15 K, x1 = 0.147	1211.1	1.355
348.15 K, x1 = 0.184	1240.4	1.706
348.15 K, x1 = 0.213	1260	2.06
348.15 K, x1 = 0.25	1280.6	2.589
348.15 K, x1 = 0.299	1302.4	3.124
348.15 K, x1 = 0.341	1317.7	3.785
348.15 K, x1 = 0.401	1336.5	5.338
348.15 K, x1 = 0.451	1347.1	6.657
